From EP0926242A1, “GLIOTOXIN DERIVATIVES AND ANTICANCER AGENT COMPRISING THE SAME” (priority 1996, dated 1998)
Values after ≈ are worked out from the molar mass of the structure shown. Read-outs that look alike come from different tables or passages of the source.

Key:
[1] = tested on: Human carcinoma of the colon cell strain HCT-116; experiment: Tertiary culture using test human cancer, killed cells by MTT method; format: cell-based; settings: incubated 3 days
Method: Tertiary cultures were carried out using a human carcinoma of the colon tissue in stage 2b. The tertiary cultures were carried out according to the reported method (Int.J.Cancer Res., 82, 607-612 (1991), Gan to Kagakuryoho, 18, 239-243 (1991), Gan to Kagakuryoho, 19, 743-748 (1992)). The extracted tissue of carninoma of the colon was cut into square pieces having a side of about 2 mm, and incubated in a RPMI- 1640 medium containing 10 % fetal calf serum under 5 % CO2 at 37 °C for 3 days. Existing anticancer agents or acetylgliotoxin were diluted and added, and further incubated for 3 days. Then, the rate of killed cells was determined by the MTT method. The tertiary cultures using the test human cancer were carried out as follows: Human carcinoma of the colon cell strain HCT-116 was transplanted into the subcutaneous tissue of a nude mouse (Balb nu/nu) to induce tumor. The cancer tissue was extracted from the tumor-induced portion, and cut into square pieces having a side of 2 mm. The evaluation of the existing anticancer agents and acetylyliotoxin was earried out according to the aforementioned method.

[2] = tested on: mouse carcinoma of the colon cells colon 26; experiment: Anticancer effect in vivo against colon 26 (Example 9 A); settings: CDFI mice
Method: (§1) • (A) Evaluationin vivo using mouse carcinoma of the colon cells colon 26 CDFI mice (female : 4 weks age) were bought, and colon 26 subcultured in the subcutaneous tissue of the mouse was taken out, and cut into small pieces by a scissors. The cancer cells were transplanted into subcutaneous tisue of CDFI mice by a trucker. The day was assigned 0 day, and the tumor was measured by a slide caliper after 7 days. The volume of the tumor was calculated, and divided into groups (each group : n = 4). The text compound was dissolved in dimethylsulfoxide, and diluted with 5 % Tween 80- saline aqueous solution. […] The administration was carried out after 7 days, after 11 days and after 15 days or after 7 days and after 8 days from the transplantation at a rate of once per one day. 21st day from the transplantation, the volume of tumor was measured and the volume of tumor and the inhibition against tumor multiplication rate (I.R.) were calculated. The volume of tumor was calculated by the following formula. (Tumore Volume [mm)^3 (]= Minor Axis [mm])^2 × Major Axis [mm] × (1/2) [formula] • The inhibition against tumor multiplication rate (I.R.) was calculated by the following formula. I.R. [%] = {1- (Average Tumor Volume of Administration Group / Average Tumor Volume of Control Group)) × 100 [formula] • (B) Evaluation in vivo using human carcinoma of the colon cells HCT-116 Balb/c nu/nu mice (female : 5 weks age) were bought, and HCT-116 (Dainippon Seiyaku) subcultured in the subcutaneous tissue of the mouse was taken out, and cut into small pieces by a scissors. The cancer cells were transplanted into subcutaneous tissue of […] mice by a trucker. The day was assigned 0 day, and the tumor was measured by a slide caliper after 7 days. The volume of the tumor was calculated, and divided into groups (each group : n = 2). The text compound was dissolved in dimethylsulfoxide, and diluted with 5 % Tween 80- saline aqueous solution. […] The administration was carried out after 7 days, after 11 days and after 15 days from the transplantation at a rate of once per one day. 21st day from the transplantation, the volume of tumor was measured and the volume of tumor and the inhibition against tumor multiplication rate (I.R.) were calculated by the above formulas.

[3] = tested on: human carcinoma of the colon cells HCT-116; experiment: Anticancer effect in vivo against HCT 116 (Example 9 B); design: species or system mouse; settings: 5 [mg/kg]×3 (i.p.), 7,11,15th days, Balb/c nu/nu mice
Method: as §1

[4] = tested on: mouse leukemia cells P388; experiment: Evaluation of cytotoxity of synthesized derivatives by the MTT method (Example 8); format: cell-based; settings: for IC50: Mus musculus, read-out: P388 IC50[ng/mL]
Method: (§2) Antitumor activity of the synthesized derivatives against various cancer cells was measured by the MTT method. The cancer cells used were mouse carcinoma of the colon cells colon 26 (Gan Kenkyu-sho, Gan Kenkyu-kai) and mouse leukemia cells P388 (Dai-Nippon Seiyaku), and the culture medium contained 10 % fetal calf serum. Each cells were placed in each well of 96 well microplate n an amount of […]/50 µL/well and 50 µL of a test compound aqueous solution in each concentration was added. After incubating at 37 °C for 3 days, the number of survival cells was measured by the MTT method, and a dose-reaction curve was made. Thereby, the concentration of each test compound inhibiting multiplication at a rate of 50 % (IC50) was calculated.

[5] = tested on: mouse carcinoma of the colon cells colon 26; experiment: as above; format: cell-based; settings: for IC50: Mus musculus
Method: as §2

[6] = 10 [mg/kg]×2 (i.v.), 7, 14th days
[7] = 2.5[mg/kg]×3 (i.p.), 7,11,15th days
[8] = 5 [mg/kg]×3 (i.p.), 7,11,15th days
[9] = 72 h, colon 26, 3 days, MTT, read-out: colon 26 IC 50
[10] = 10 [mg/kg]×2 (i.p.), 7,8th days

## O=c1[nH]cc(F)c(=O)[nH]1 [5-F U, 5-Fluorouracil]
[1]; conc. 500 ug/mL
  I. R. (%): 38%

## COc1cccc2c1C(=O)c1c(O)c3c(c(O)c1C2=O)C[C@@](O)(C(=O)CO)C[C@@H]3O[C@H]1C[C@H](N)[C@H](O)[C@H](C)O1 [Adriamycin, reference compound]
[2]; [6]
  I.R. (21st day): 38.9%
  I.R.Max: 38.9%
[1]; conc. 6 ug/mL
  I. R. (%): 0%

## [NH2][Pt]([NH2])([Cl])[Cl] [CDDP, Cisplatin, reference compound]
[1]; conc. 25 ug/mL
  I. R. (%): 6%
[3]
  I.R. (21st day): 15.6%
  I.R.Max: 47.5%

## CN1C(=O)[C@]23Cc4ccccc4N2C(=O)[C@]1(CO)SS3 [Compound of Example 3, (3S, 10aR)―2,3-dihydro―3―(hydroxymethyl)―2― methyl―10H―3,10a―epidithiopyrazino[1,2―a]indole― 1,4―dione]
[2]; [7]
  I.R. (21st day): 35.2%
  I.R.Max: 35.3%
[2]; [8]
  I.R. (21st day): 43.7%
  I.R.Max: 51.6%
[4]; 72 h, P388, 3 days, MTT
  IC50: 3.2 ng/mL (≈ 0.0104 µM)
[5]; [9]
  IC50: 58 ng/mL (≈ 0.188 µM)

## CN1C(=O)[C@]23Cc4cccc(O)c4N2C(=O)[C@]1(CO)SS3 [Compound of Example 4, (3S, 10aR)―2,3―dihydro―6―hydroxy―3―(hydroxymethyl)― 2―methyl―10H―3,10a―epidithiopyrazino[1,2―a]indole― 1,4―dione]
[2]; [7]
  I.R. (21st day): 40.1%
  I.R.Max: 54.5%
[2]; [8]
  I.R. (21st day): 52.9%
  I.R.Max: 58.9%
[2]; [10]
  I.R. (21st day): 43.5%
  I.R.Max: 79.8%
[3]
  I.R. (21st day): 63.8%
  I.R.Max: 66.5%
[4]; P388, 72 h
  IC50: 21 ng/mL (≈ 0.0647 µM)
[5]; Colon 26, 72 h, read-out: colon 26 IC 50 [ng/mL]
  IC50: 110 ng/mL (≈ 0.339 µM)

## CC(=O)Oc1cccc2c1N1C(=O)[C@]3(CO)SS[C@]1(C2)C(=O)N3C [Compound of Example 5, (3 S, 10aR)―6―acetoxy―2,3―dihydro―3―(hydroxymethyl)― 2―methyl―10H―3,10a―epidithiopyrazino[1,2―a]indole―1, 4―dione]
[4]; 72 h, P388, 3 days, MTT
  IC50: 13 ng/mL (≈ 0.0355 µM)
[5]; [9]
  IC50: 74 ng/mL (≈ 0.202 µM)

## CN1C(=O)[C@]23Cc4cccc(OCC#N)c4N2C(=O)[C@]1(CO)SS3 [Compound of Example 6, (3S, 10aR)―6―(cyanomethoxy)―2,3―dihydro―3― (hydroxymethyl)―2―methyl―10H-3,10a―a― epidithiopyrazino[1,2―a]indole―1,4―dione]
[4]; P388, 3 days, MTT
  P388 IC50[ng/mL]: 5.8 ng/mL
[5]; colon 26, 3 days, MTT
  colon 26 IC 50: 0.07 µg/mL

## COC(=O)COc1cccc2c1N1C(=O)[C@]3(CO)SS[C@]1(C2)C(=O)N3C [Compound of Example 7, (3S, 10aR)―2,3―dihydro―3― (hydroxymethyl)―6―[(methoxycarbonyl)methyloxy]―2― methyl―10H―3,10a―epidiopyrazino[1,2―a]indole―1,4― dione]
[5]; colon 26, 3 days, MTT
  colon 26 IC 50: 0.082 µg/mL

## CN1C(=O)[C@]23CC4=CC=C[C@H](O)[C@H]4N2C(=O)[C@@]1(CO)SS3 [Gliotoxin, gliotoxin]
[1]; conc. 12.5 ug/mL
  I. R. (%): 28%
[1]; conc. 25 ug/mL
  I. R. (%): 66%

## CO[C@@]12[C@H](COC(N)=O)C3=C(C(=O)C(C)=C(N)C3=O)N1C[C@@H]1N[C@@H]12 [M M C, Mitomycin C]
[1]; conc. 15 ug/mL
  I. R. (%): 34%

## CC(=O)O[C@H]1C(=O)[C@@]2(C)[C@H]([C@H](OC(=O)c3ccccc3)[C@]3(O)C[C@H](OC(=O)[C@H](O)[C@@H](NC(=O)c4ccccc4)c4ccccc4)C(C)=C1C3(C)C)[C@]1(OC(C)=O)CO[C@@H]1C[C@@H]2O [T A X O L, Taxol]
[1]; conc. 100 ug/mL
  I. R. (%): 19%

## CC[C@]1(O)C[C@@H]2CN(CCc3c([nH]c4ccccc34)[C@@](C(=O)OC)(c3cc4c(cc3OC)N(C)[C@H]3[C@@](O)(C(=O)OC)[C@H](OC(C)=O)[C@]5(CC)C=CCN6CC[C@]43[C@@H]65)C2)C1 [Vinblastine]
[1]; conc. 100 ug/mL
  I. R. (%): 20%
